Data reported in US20230399289A1, “ITACONIC ACID DERIVATIVES” (Sitryx Therapeutics Limited, priority 2020, published 2023).
Where a name gives a salt, the structure may show the parent alone.

Tests used:
hepatocytes [1] = assay: Hepatocyte stability assay, human; format: in vitro ADME; conditions: 10 μM compound, 0.5×10^6 cells/mL, 60 min
Source text: (§1) Defrosted cryo-preserved hepatocytes (viability>70%) may be used to determine the metabolic stability of a compound via calculation of intrinsic clearance (Clint; a measure of the removal of a compound from the liver in the absence of blood flow and cell binding). Clearance data are particularly important for in vitro work as they can be used in combination with in vivo data to predict the half-life and oral bioavailability of a drug.
(§2) The metabolic stability in hepatocytes assay involves a time-dependent reaction using both positive and negative controls. The cells were pre-incubated at 37° C. and spiked with test compound (and positive control); samples were taken at pre-determined time intervals and analysed to monitor the change in concentration of the initial drug compound over 60 minutes. A buffer incubation reaction (with no hepatocytes present) acted as a negative control and two cocktail solutions, containing compounds with known high and low clearance values (verapamil/7-hydroxycoumarin and propranolol/diltiazem), acted as positive controls. • 1. The assay was run with a cell concentration of 0.5×10^6 cells/mL in Leibovitz buffer. • 2. All compounds and controls were run in duplicate. • 3. Compound concentration was 10 μM. • 4. All compounds and controls were incubated with both cells and buffer to show turnover was due to hepatic metabolism. • 5. All wells on the incubation plate had 326.7 μL of either cells or buffer added. • 6. Prior to assay, cell and buffer-only incubation plates were preincubated for 10 mins at 37° C. • 7. The assay was initiated by adding compounds, 3.3 μL of 1 mM in 10% DMSO-90% Buffer; final DMSO concentration is 0.1%. • 8. Samples were taken at regular timepoints (0, 5, 10, 20, 40, 60 min) until 60 mins. • 9. Sample volume was 40 μL and was added to 160 μL of crash solvent (acetonitrile with internal standard) and stored on ice. • 10. At the end of the assay, the crash plates were centrifuged at 3500 rpm for 20 mins at 4° C. • 11. 80 μL of clear supernatant was removed and mixed with 80 μL of deionised water before being analysed by LC-MS/MS.
(§3) Raw LC-MS/MS data was exported to, and analysed in, Microsoft Excel for determination of intrinsic clearance. The percentage remaining of a compound was monitored using the peak area of the initial concentration as 100%. Intrinsic clearance and half-life values were calculated using a graph of the natural log of percentage remaining versus the time of reaction in minutes. Half-life (min) and intrinsic clearance (Clint in μL min^−1 10^−6 cells) values were calculated using the gradient of the graph (the elimination rate constant, k) and Equations 1 and 2.

hepatocytes [2] = assay: Hepatocyte stability assay, mouse; format: in vitro ADME; conditions: 10 μM compound, 0.5×10^6 cells/mL, 60 min
Source text: as §1, §2, §3

[3] = system: IL-1β cytokine output from THP-1 cells; assay: THP-1 AlphaLISA IL-1β cytokine assay; format: cell-based; conditions: Homo sapiens, THP-1, differentiated THP-1 cells, LPS 24 hr then Nigericin 1 hour
Experimental: (§4) Measuring Inhibitory Effects on IL-1β and IL-6 Cytokine Output from THP-1s
(§5) The cytokine inhibition profiles of compounds of formula (I) were determined in a differentiated THP-1 cell assay. All assays were performed in RPMI-1640 growth medium (Gibco), supplemented with 10% fetal bovine serum (FBS; Gibco), 1% penicillin-streptomycin and 1% sodium pyruvate unless specified otherwise. The IL-1β and IL-6 cytokine inhibition assays were each run in a background of differentiated THP-1 cells as described below. All reagents described were from Sigma-Aldrich unless specified otherwise. Compounds were prepared as 10 mM DMSO stocks.
(§6) THP-1 cells were expanded as a suspension up to 80% confluence in appropriate growth medium. Cells were harvested, suspended, and treated with an appropriate concentration of phorbol 12-myristate 13-acetate (PMA) over a 72 hr period (37° C./5% CO2).
(§7) Following 72 hrs of THP-1 cell incubation, cellular medium was removed and replaced with fresh growth media containing 1% of FBS. Working concentrations of compounds were prepared separately in 10% FBS treated growth medium and pre-incubated with the cells for 30 minutes (37° C./5% CO2). Following the 30 minute compound pre-incubation, THP-1s were treated with an appropriate concentration of LPS and the THP-1s were subsequently incubated for a 24 hr period (37° C./5% CO2). An appropriate final concentration of Nigericin was then dispensed into the THP-1 plates and incubated for 1 hour (37° C./5% CO2) before THP-1 supernatants were harvested and collected in separate polypropylene 96-well holding plates.
(§8) Reagents from each of the […] and IL-6 commercial kits (Perkin Elmer) were prepared and run according to the manufacturer's instructions. Subsequently, fluorescence signal detection in a microplate reader was measured (EnVision® Multilabel Reader, Perkin Elmer).
(§9) Percentage inhibition was calculated per cytokine by normalising the sample data to the high and low controls used within each plate (+/−LPS respectively). Percentage inhibition was then plotted against compound concentration and the 50% inhibitory concentration (IC50) was determined from the resultant concentration-response curve.

[4] = Hepatocyte stability assay, human; format: in vitro ADME; conditions: cryopreserved hepatocytes, 10 μM compound, 0.5×10^6 cells/mL, 60 min, read-out: T½
Source text: as §1, §2, §3

[5] = Hepatocyte stability assay, mouse; format: in vitro ADME; conditions: cryopreserved hepatocytes, 10 μM compound, 0.5×10^6 cells/mL, 60 min, read-out: T½
Source text: as §1, §2, §3

[6] = system: IL-6 cytokine output from THP-1 cells; assay: THP-1 AlphaLISA IL-6 cytokine assay; format: cell-based; conditions: Homo sapiens, THP-1, differentiated THP-1 cells, LPS 24 hr then Nigericin 1 hour
Experimental: as §4, §5, §6, §7, §8, §9

[7] = system: NRF2 (nuclear factor erythroid 2-related factor 2); assay: NRF2 +/−GSH activation assay (DiscoverX PathHunter NRF2 translocation kit, U2OS cells); format: cell-based; conditions: Homo sapiens; for Emax: U2OS, normalised to dimethyl fumarate high control; for EC50: U2OS PathHunter cells, 6 hours
[8] = +GSH, 30 minute compound-GSH pre-incubation

Structure (SMILES)	CIint (hepatocytes [1])	CIint (hepatocytes [2])	IC50 [3]	IC50 [6]	also measured
C=C(CC(=O)OCCCCCCCC)C(=O)O [4-octyl itaconate, reference compound]	401 μL min^−1 10^−6 cells	351 μL min^−1 10^−6 cells	–	–	T½ (hepatocytes [1]): 4 min; T½ (hepatocytes [2]): 4 min
C=C(CC(=O)OC1(c2cccc(Cl)c2Cl)CCC1)C(=O)OCC(=O)O [Example 7, 2-((4-(1-(2,3-dichlorophenyl)cyclobutoxy)-2-methylene-4-oxobutanoyl)oxy)acetic acid]	10 μL min^−1 10^−6 cells	107 μL min^−1 10^−6 cells	17.4 µM	–	half-life at 10 μM [4]: 151 min; half-life at 10 μM [5]: 18 min
C=C(CC(=O)OC1(c2cc(F)c(F)c(F)c2)CCC1)C(=O)OCC(=O)O [Example 14, 2-((2-methylene-4-oxo-4-(1-(3,4,5-trifluorophenyl)cyclobutoxy)butanoyl)oxy)acetic acid]	–	–	19.9 µM	–	–
C=C(CC(=O)OC1(c2cc(Cl)cc(C(F)(F)F)c2)CCC1)C(=O)OCC(=O)O [Example 15, 2-((4-(1-(3-chloro-5-(trifluoromethyl)phenyl)cyclobutoxy)-2-methylene-4-oxobutanoyl)oxy)acetic acid]	–	–	8.6 µM	–	–
C=C(CC(=O)OC1(c2ccc(C(F)(F)F)c(Cl)c2)CCC1)C(=O)OCC(=O)O [Example 16, 2-((4-(1-(3-chloro-4-(trifluoromethyl)phenyl)cyclobutoxy)-2-methylene-4-oxobutanoyl)oxy)acetic acid]	7 μL min^−1 10^−6 cells	61 μL min^−1 10^−6 cells	4.9 µM	–	half-life at 10 μM [4]: 209 min; half-life at 10 μM [5]: 25 min
C=C(CC(=O)OC1(c2cc(Cl)c(F)c(Cl)c2)CCC1)C(=O)OCC(=O)O [Example 17, 2-((4-(1-(3,5-dichloro-4-fluorophenyl)cyclobutoxy)-2-methylene-4-oxobutanoyl)oxy)acetic acid]	8 μL min^−1 10^−6 cells	73 μL min^−1 10^−6 cells	4.9 µM	–	half-life at 10 μM [4]: 188 min; half-life at 10 μM [5]: 21 min
C=C(CC(=O)OC1(c2cc(Cl)c(OC)c(Cl)c2)CCC1)C(=O)OCC(=O)O [Example 18, 2-((4-(1-(3,5-dichloro-4-methoxyphenyl)cyclobutoxy)-2-methylene-4-oxobutanoyl)oxy)acetic acid]	13 μL min^−1 10^−6 cells	58 μL min^−1 10^−6 cells	9.9 µM	–	half-life at 10 μM [4]: 109 min; half-life at 10 μM [5]: 26 min
C=C(CC(=O)OC1(c2cc(F)c(C(F)(F)F)c(F)c2)CCC1)C(=O)OCC(=O)O [Example 19, 2-((4-(1-(3,5-difluoro-4-(trifluoromethyl)phenyl)cyclobutoxy)-2-methylene-4-oxobutanoyl)oxy)acetic acid]	8 μL min^−1 10^−6 cells	66 μL min^−1 10^−6 cells	4.4 µM	–	half-life at 10 μM [4]: 187 min; half-life at 10 μM [5]: 23 min
C=C(CC(=O)OC1(c2ccc(C(F)(F)F)cc2)CCC1)C(=O)O[C@@H](CC(=O)O)C(F)(F)F [Example 21, (S)-4,4,4-trifluoro-3-((2-methylene-4-oxo-4-(1-(4-(trifluoromethyl)phenyl)cyclobutoxy)butanoyl)oxy)butanoic acid]	–	–	1 µM	0.9 µM	Emax ([7]; +GSH): 53%; Emax ([7]; −GSH): 170%; EC50 [7, 8]: 5.7 µM; EC50 ([7]; −GSH): 1.7 µM
C=C(CC(=O)OC1(c2ccc(C(F)(F)F)cc2)CCC1)C(=O)O[C@H](CC(=O)O)C(F)(F)F [Example 23, (R)-4,4,4-trifluoro-3-((2-methylene-4-oxo-4-(1-(4-(trifluoromethyl)phenyl)cyclobutoxy)butanoyl)oxy)butanoic acid]	–	–	1.5 µM	1.2 µM	Emax ([7]; +GSH): 54%; Emax ([7]; −GSH): 141%; EC50 [7, 8]: 5.3 µM; EC50 ([7]; −GSH): 2.3 µM
C=C(CC(=O)OC1(Cc2ccc(Cl)cc2)CCC1)C(=O)OCC(=O)O [Example 24, 2-((4-(1-(4-chlorobenzyl)cyclobutoxy)-2-methylene-4-oxobutanoyl)oxy)acetic acid]	–	–	14.5 µM	11.3 µM	Emax ([7]; +GSH): 119%; Emax ([7]; −GSH): 194%; EC50 [7, 8]: 28.3 µM; EC50 ([7]; −GSH): 29.6 µM
C=C(CC(=O)OC1(c2ccc(C(F)(F)F)cc2)CCCC1)C(=O)OCC(=O)O [Example 25, 2-((2-methylene-4-oxo-4-((1-(4-(trifluoromethyl)phenyl)cyclopentyl)oxy)butanoyl)oxy)acetic acid]	–	–	17.4 µM	15.9 µM	–
C=C(CC(=O)OC1(c2ccc(-c3ccc(F)cc3)cc2)CCC1)C(=O)OCC(=O)O [Example 26, 2-((4-(1-(4′-fluoro-[1,1′-biphenyl]-4-yl)cyclobutoxy)-2-methylene-4-oxobutanoyl)oxy)acetic acid]	–	–	46.9 µM	3.9 µM	–
C=C(CC(=O)OC1(Cc2ccc(C(F)(F)F)cc2)CC1)C(=O)OCC(=O)O [Example 27, 2-((2-methylene-4-oxo-4-(1-(4-(trifluoromethyl)benzyl)cyclopropoxy)butanoyl)oxy)acetic acid]	–	–	16.4 µM	14.1 µM	–
C=C(CC(=O)OC1(C#Cc2ccc(C(F)(F)F)cc2)CCC1)C(=O)OCC(=O)O [Example 28, 2-((2-methylene-4-oxo-4-(1-((4-(trifluoromethyl)phenyl)ethynyl)cyclobutoxy)butanoyl)oxy)acetic acid]	–	–	11.3 µM	3.3 µM	–
C=C(CC(=O)OC1(c2ccc(C(F)(F)F)cc2)COC1)C(=O)OCC(=O)O [Example 29, 2-((2-methylene-4-oxo-4-((3-(4-(trifluoromethyl)phenyl)oxetan-3-yl)oxy)butanoyl)oxy)acetic acid]	–	–	43.2 µM	45.2 µM	–
C=C(CC(=O)OC1(c2ccc(C(F)(F)F)cc2)CC(F)(F)C1)C(=O)OCC(=O)O [Example 31, 2-((4-(3,3-difluoro-1-(4-(trifluoromethyl)phenyl)cyclobutoxy)-2-methylene-4-oxobutanoyl)oxy)acetic acid]	–	–	14.4 µM	16.5 µM	Emax ([7]; +GSH): 108%; Emax ([7]; −GSH): 182%; EC50 [7, 8]: 30.8 µM; EC50 ([7]; −GSH): 21.7 µM
COC(=O)/C=C/C(=O)OC [dimethyl fumarate, reference compound]	–	–	–	–	Emax ([7]; +GSH): 19%; Emax ([7]; −GSH): 100%; EC50 [7, 8]: > 100 µM; EC50 ([7]; −GSH): 6 µM
C=C(CC(=O)OC)C(=O)OC [dimethyl itaconate, reference compound]	–	–	> 100 µM	> 100 µM	–
